Results taken from the supplement of paper PMC10307832.

Experiments:
Experiment in all cases: relative viability (nuclei count vs DMSO), 5 days (fraction); higher = more cells survive
FG-4592 + AZD7762 = compound: Cc1nc(C(=O)NCC(=O)O)c(O)c2ccc(Oc3ccccc3)cc12 [FG-4592] + NC(=O)Nc1cc(-c2cccc(F)c2)sc1C(=O)N[C@H]1CCCNC1 [AZD7762] (partner 0.2 µM)
In short: (§1)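 Medians of duplicate plates are given as relative viability. That measure is the nuclei count in treated wells divided by the count in vehicle wells. Counts were taken on 4× images of lung cancer cell lines in 1536-well plates, 5 days after pin-tool dosing the day after seeding with one drug alone or a fixed anchor-drug dose plus five library-drug doses (not always all listed) in √10 steps.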

IU1-47 + Crizotinib = compound: CC1=CC(=C(N1C2=CC=C(C=C2)Cl)C)C(=O)CN3CCCCC3 [IU1-47] + C[C@@H](Oc1cc(-c2cnn(C3CCNCC3)c2)cnc1N)c1c(Cl)ccc(F)c1Cl [Crizotinib] (partner 1 µM)
In short: as §1

FG-4592 + Bortezomib = compound: Cc1nc(C(=O)NCC(=O)O)c(O)c2ccc(Oc3ccccc3)cc12 [FG-4592] + CC(C)C[C@H](NC(=O)[C@H](Cc1ccccc1)NC(=O)c1cnccn1)B(O)O [Bortezomib] (partner 0.002 µM)
In short: as §1

IU1-47 + Bortezomib = compound: CC1=CC(=C(N1C2=CC=C(C=C2)Cl)C)C(=O)CN3CCCCC3 [IU1-47] + CC(C)C[C@H](NC(=O)[C@H](Cc1ccccc1)NC(=O)c1cnccn1)B(O)O [Bortezomib] (partner 0.002 µM)
In short: as §1

Cell Line | relative viability (FG-4592 + AZD7762; first compound 0.08 µM) | relative viability (FG-4592 + AZD7762; first compound 0.253 µM) | relative viability (FG-4592 + AZD7762; first compound 0.8 µM) | relative viability (FG-4592 + AZD7762; first compound 2.53 µM) | relative viability (FG-4592 + AZD7762; first compound 8 µM) | relative viability (IU1-47 + Crizotinib; first compound 0.08 µM) | relative viability (IU1-47 + Crizotinib; first compound 0.253 µM) | relative viability (IU1-47 + Crizotinib; first compound 0.8 µM) | relative viability (IU1-47 + Crizotinib; first compound 2.53 µM) | relative viability (IU1-47 + Crizotinib; first compound 8 µM) | relative viability (FG-4592 + Bortezomib; first compound 0.08 µM) | relative viability (FG-4592 + Bortezomib; first compound 0.253 µM) | relative viability (FG-4592 + Bortezomib; first compound 0.8 µM) | relative viability (FG-4592 + Bortezomib; first compound 2.53 µM) | relative viability (FG-4592 + Bortezomib; first compound 8 µM) | relative viability (IU1-47 + Bortezomib; first compound 0.08 µM) | relative viability (IU1-47 + Bortezomib; first compound 0.253 µM) | relative viability (IU1-47 + Bortezomib; first compound 0.8 µM) | relative viability (IU1-47 + Bortezomib; first compound 8 µM) | relative viability (IU1-47 + Bortezomib; first compound 2.53 µM)
NCI-H2342 | 0.456 | 0.459 | 0.526 | 0.403 | 0.438 |  |  |  |  |  |  |  |  |  |  |  |  |  |  | 
SK-MES-1 |  |  |  |  |  | 1.08 | 1.04 | 0.908 | 0.984 | 0.994 |  |  |  |  |  |  |  |  |  | 
HCC-366 | 0.243 | 0.248 | 0.28 | 0.364 | 0.269 | 0.38 | 0.633 | 0.562 |  | 0.393 | 0.9 | 1.01 | 1.11 | 1.12 | 0.99 | 1.13 | 1.02 | 1.25 | 0.866 | 
201T | 0.579 | 0.595 | 0.453 | 0.559 | 0.555 | 1.08 | 1.04 | 1.05 |  | 1.04 | 1.11 | 1.12 | 1.04 | 1.1 | 1.08 | 1.1 | 1.06 | 1.14 | 1.05 | 
HCC-827 | 0.23 | 0.173 | 0.326 | 0.184 | 0.22 | 0.89 | 0.955 | 1.01 | 0.961 | 0.904 | 1.04 | 0.947 | 1.23 | 0.983 | 0.939 | 1.22 | 1.12 | 1.05 | 1.11 | 1.08
NCI-H647 | 0.431 | 0.429 | 0.367 | 0.422 | 0.532 | 1.01 | 1.22 | 0.99 | 1.07 | 0.561 | 0.977 | 0.846 | 0.844 | 0.912 | 0.958 | 0.97 | 0.904 | 1.08 | 0.862 | 0.859
NCI-H2023 |  |  |  |  |  | 0.663 | 0.67 | 0.645 | 0.78 | 0.581 | 1.07 | 0.924 | 0.664 | 0.763 | 0.679 | 0.94 | 1.15 | 1 | 1.12 | 0.481
NCI-H520 |  |  |  |  |  | 0.815 | 0.984 | 0.627 | 0.8 | 0.499 | 0.53 | 0.612 | 0.496 | 0.459 | 0.31 | 0.679 | 0.687 | 0.821 | 0.408 | 0.576
RERF-LC-KJ | 0.913 | 0.992 | 0.815 | 0.883 | 0.969 | 0.805 | 0.86 | 0.787 | 0.848 | 0.884 | 0.99 | 0.975 | 0.967 | 1.11 | 1.06 | 1.16 | 1.18 | 1.12 | 1.06 | 1.14
A-427 | 0.757 | 0.777 | 0.665 | 0.773 | 0.717 | 1.04 | 0.938 | 0.944 |  | 0.634 | 0.925 | 0.979 | 0.983 | 0.946 | 0.954 | 1.01 | 0.968 | 1.06 | 0.841 | 
